These molecules were tested on EOL-1 AML xenografts (assay: EOL-1 AML subcutaneous xenograft efficacy). Conditions: single IV dose 0.4 mg/kg.
Format: in vivo, mice
Protocol: Two human AML cell lines, EOL-1 (DSMZ; Braunschweig, Germany) and HL-60 (ATCC, Manassas, VA) were used to establish subcutaneous xenograft models for efficacy evaluation of the degrader-antibody conjugates. Tumor cells (5 million cells suspended in 0.1 mL of Hanks' Balanced Salt Solution supplemented with Matrigel) were inoculated to the flanks of female CB-17 Fox Chase SCID mice (Charles River Lab, Hollister, CA). When mean tumor size reached the desired volume (200-300 mm^3), animals were randomized into groups of n=5, each with similar tumor volume distributions, and each animal received an intraperitoneal dose of a mouse IgG2a anti-ragweed antibody in excess amount (30 mg/kg; to block Fcγ receptors frequently expressed on the surface of AML cells). Four hours later, vehicle or degrader-antibody conjugates were administered to the animals via single intravenous (IV) bolus injections through the tail vein. Tumors were measured in two dimensions (length and width) using calipers and the tumor volume was calculated using the formula: Tumor size (mm^3)=0.5×(length×width×width). The results were plotted as mean tumor volume+/−SEM of each group over time. Treatment groups were not blinded during tumor measurement.

| SMILES | efficacy in the EOL-1 model |
| --- | --- |
| Cc1ncsc1-c1ccc(CNC(=O)[C@@H]2C[C@@H](O)CN2C(=O)[C@@H](NC(=O)CCCCCCCCCCNC(=O)c2cc3c(cc2CS(C)(=O)=O)-c2cn(C)c(=O)c4[nH]cc(c24)CN3c2ncc(F)cc2F)C(C)(C)C)cc1 [unconjugated CIDE] | no efficacy |

The molecules below were run against T1, ERα (Homo sapiens, UniProt P03372) (assay: Degradation of ERα by Ab-CIDEs (Example 3, FIGS. 1-3, Tables 2-4)). Conditions: ERα degradation by Ab-CIDE.
T1 construct: ERα degradation percent activity in MCF7 neo/HER2 cells
T1 sequence (P03372 1-595): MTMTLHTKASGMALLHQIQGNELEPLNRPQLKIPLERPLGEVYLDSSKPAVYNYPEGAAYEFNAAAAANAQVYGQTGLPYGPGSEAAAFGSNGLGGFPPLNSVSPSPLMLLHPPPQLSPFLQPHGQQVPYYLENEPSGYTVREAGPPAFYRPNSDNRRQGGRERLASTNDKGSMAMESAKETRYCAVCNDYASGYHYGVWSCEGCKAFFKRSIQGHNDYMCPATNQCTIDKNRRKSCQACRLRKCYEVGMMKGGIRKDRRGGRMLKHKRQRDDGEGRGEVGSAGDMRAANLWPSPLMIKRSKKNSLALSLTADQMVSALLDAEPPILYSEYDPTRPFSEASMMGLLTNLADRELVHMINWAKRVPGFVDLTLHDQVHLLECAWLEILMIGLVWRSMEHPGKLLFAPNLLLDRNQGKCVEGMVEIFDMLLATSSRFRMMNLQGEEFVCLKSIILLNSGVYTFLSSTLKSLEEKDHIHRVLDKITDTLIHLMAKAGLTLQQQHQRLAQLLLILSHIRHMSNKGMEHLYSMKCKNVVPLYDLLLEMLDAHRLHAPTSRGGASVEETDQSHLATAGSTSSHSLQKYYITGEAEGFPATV
Format: cell-based

| SMILES | DC50 [nM] | Sinf [%] |
| --- | --- | --- |
| CC/C(=C(\c1ccc(O)cc1)c1ccc(OCCN(C)C(=O)CCOCCOCCC(=O)N[C@H](C(=O)N2C[C@H](OC(=O)OCC(C)(C)SS(C)(=O)=O)C[C@H]2C(=O)NCc2ccc(-c3scnc3C)cc2)C(C)(C)C)cc1)c1ccccc1 [Thio Hu Anti- Her2 7C2 high DAR [LC:K149C HC:L174C HC:Y373C]] | 27.9 | −93 |
| CC/C(=C(\c1ccc(O)cc1)c1ccc(OCCN(C)C(=O)CCOCCOCCC(=O)N[C@H](C(=O)N2C[C@H](OC(=O)OCC(C)(C)SS(C)(=O)=O)C[C@H]2C(=O)NCc2ccc(-c3scnc3C)cc2)C(C)(C)C)cc1)c1ccccc1 [Thio Hu Anti- CD22 10F4v3 high DAR [LC:K149C HC:L174C Y373C]] | 304 | −92 |
| CC/C(=C(/c1ccc(OCCN(C)C(=O)CCOCCOCCC(=O)N[C@H](C(=O)N2C[C@H](OC(=O)OCC(C)(C)SS(C)(=O)=O)C[C@H]2C(=O)NCc2ccc(-c3scnc3C)cc2)C(C)(C)C)cc1)c1ccc(OP(=O)(O)O)cc1)c1ccccc1 [Thio Hu Anti- CD22 10F4v3 high DAR [LC:K149C HC:L174C HC:Y37] | 1270 | −92 |
| CC/C(=C(/c1ccc(OCCN(C)C(=O)CCOCCOCCC(=O)N[C@H](C(=O)N2C[C@H](OC(=O)OCC(C)(C)SS(C)(=O)=O)C[C@H]2C(=O)NCc2ccc(-c3scnc3C)cc2)C(C)(C)C)cc1)c1ccc(OP(=O)(O)O)cc1)c1ccccc1 [Thio Hu Anti- Her2 7C2 high DAR [LC:K149C HC:L174C HC:Y373C]] | 47.4 | −94 |

Source: patent publication US12440706B2, “Conjugated chemical inducers of degradation and methods of use” (Genentech, Inc., priority 2018, dated 2025)
